Paper PMC12895000, “Structural and computational supported development of 2,5-disubstituted-1,3,4-oxadiazole analogues as active LOX, urease, and α-glucosidase inhibitors” (Scientific Reports, 2026)

Biological target: α-glucosidase (Saccharomyces cerevisiae, UniProt P53341)
Format: biochemical
Experimental: Inspection of α-glucosidase inhibition was made by using protocol mentioned in literature. 10 µl (0.057 units) of purified enzyme, 10 µl (0.5 mM) of the test compound and 70 µl (50 mM) of sodium phosphate buffer (pH = 6.8) were collected in a 96-well plate. Pre-incubation for 10 min at 37 °C was performed. Pre-reading was done at 400 nm. 10 µl (0.5 mM) of p-nitrophenyl glucopyranoside were added as a substrate. […] The collection of all data was made thrice. The formula given above allowed to calculate % of inhibition.

Chain of α-glucosidase (P53341 whole entry): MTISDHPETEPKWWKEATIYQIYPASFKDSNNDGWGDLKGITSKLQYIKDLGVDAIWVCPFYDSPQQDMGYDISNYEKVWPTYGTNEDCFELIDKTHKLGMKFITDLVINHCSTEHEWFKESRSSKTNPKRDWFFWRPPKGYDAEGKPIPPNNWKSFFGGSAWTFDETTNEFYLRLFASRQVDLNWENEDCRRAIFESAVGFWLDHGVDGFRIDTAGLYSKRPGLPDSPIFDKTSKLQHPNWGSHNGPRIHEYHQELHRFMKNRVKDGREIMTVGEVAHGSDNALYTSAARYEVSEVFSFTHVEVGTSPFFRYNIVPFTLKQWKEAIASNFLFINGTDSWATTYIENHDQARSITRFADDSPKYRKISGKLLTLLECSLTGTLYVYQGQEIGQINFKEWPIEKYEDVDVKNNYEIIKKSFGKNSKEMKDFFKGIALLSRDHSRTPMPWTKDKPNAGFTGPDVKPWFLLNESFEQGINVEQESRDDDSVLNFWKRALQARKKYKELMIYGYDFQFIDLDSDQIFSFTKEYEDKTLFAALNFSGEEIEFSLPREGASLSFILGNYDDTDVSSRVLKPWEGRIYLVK

C[C@H]1O[C@H](O[C@H]2[C@H](O)[C@@H](O)[C@@H](O[C@H]3[C@H](O)[C@@H](O)C(O)O[C@@H]3CO)O[C@@H]2CO)[C@H](O)[C@@H](O)[C@@H]1N[C@H]1C=C(CO)[C@@H](O)[C@H](O)[C@H]1O (stereo partly shown) [Acarbose]
α-Glucosidase Inhibition (%) at 0.5 Mm: 65.73 ± 1.93%
